Results published in patent US10934255B2, “Nrf and HIF activators/HDAC inhibitors and therapeutic methods using the same” (THE BOARD OF TRUSTEES OF THE UNIVERSITY OF ILLINOIS, priority 2017, dated 2021).

Key:
Human HDAC6 = target: T1, Human HDAC6 (Homo sapiens, UniProt Q9UBN7); test: HDAC6 inhibition assay (fluorogenic p53 peptide substrate); type: biochemical; details: Table 1; performed by Reaction Biology Corporation; read-out: HDAC isoform IC50 (nM) 6
T1 construct: Full length with N-terminal GST tag, MW=159 kDa; GST (N); host or cells: Sf9 insect cells (baculovirus)
T1 sequence (Q9UBN7 1-1215): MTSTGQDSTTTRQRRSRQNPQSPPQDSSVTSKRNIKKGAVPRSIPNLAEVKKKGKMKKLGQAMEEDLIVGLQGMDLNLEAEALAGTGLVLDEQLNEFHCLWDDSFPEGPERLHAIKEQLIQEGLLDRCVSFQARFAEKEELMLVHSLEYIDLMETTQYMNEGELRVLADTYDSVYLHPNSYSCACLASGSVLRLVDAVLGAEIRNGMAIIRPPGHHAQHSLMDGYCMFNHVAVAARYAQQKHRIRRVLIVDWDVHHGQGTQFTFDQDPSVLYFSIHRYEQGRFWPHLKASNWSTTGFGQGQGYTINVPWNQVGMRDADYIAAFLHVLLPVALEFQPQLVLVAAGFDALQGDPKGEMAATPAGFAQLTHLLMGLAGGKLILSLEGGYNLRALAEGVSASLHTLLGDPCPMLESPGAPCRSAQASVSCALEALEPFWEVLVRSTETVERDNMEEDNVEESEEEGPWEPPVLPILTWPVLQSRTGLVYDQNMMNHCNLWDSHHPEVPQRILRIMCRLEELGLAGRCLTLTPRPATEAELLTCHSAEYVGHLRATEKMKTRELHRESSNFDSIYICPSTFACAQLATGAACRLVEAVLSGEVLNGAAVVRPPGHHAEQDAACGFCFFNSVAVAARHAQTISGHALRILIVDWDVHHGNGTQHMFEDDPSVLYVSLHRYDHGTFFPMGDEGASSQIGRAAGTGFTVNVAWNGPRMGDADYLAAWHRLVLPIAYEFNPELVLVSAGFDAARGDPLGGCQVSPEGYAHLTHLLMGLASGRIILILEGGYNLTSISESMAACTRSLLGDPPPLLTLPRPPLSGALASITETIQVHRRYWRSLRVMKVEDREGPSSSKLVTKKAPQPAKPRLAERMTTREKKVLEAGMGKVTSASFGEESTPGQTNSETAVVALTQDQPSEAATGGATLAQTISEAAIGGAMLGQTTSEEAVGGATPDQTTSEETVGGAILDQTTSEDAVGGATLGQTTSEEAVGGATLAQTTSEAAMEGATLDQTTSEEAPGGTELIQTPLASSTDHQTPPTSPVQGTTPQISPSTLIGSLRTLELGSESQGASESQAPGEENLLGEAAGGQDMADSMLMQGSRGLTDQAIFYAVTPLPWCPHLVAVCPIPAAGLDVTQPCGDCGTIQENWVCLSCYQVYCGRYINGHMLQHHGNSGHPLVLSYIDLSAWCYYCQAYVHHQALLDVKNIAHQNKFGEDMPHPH
Protocol: (§1) The HDAC1, 2, 4, 5, 6, 7, 8, 9, 10, and 11 assays used isolated recombinant human protein; HDAC3/NcoR2 complex was used for the HDAC3 assay. Substrate for HDAC1, 2, 3, 6, 10, and 11 assays is a fluorogenic peptide from p53 residues 379-382 (RHKKAc); substrate for HDAC8 is fluorogenic diacyl peptide based on residues 379-382 of p53 (RHKAcKAc). Acetyl-Lys(trifluoroacetyl)-AMC substrate was used for HDAC4, 5, 7, and 9 assays. Compounds were dissolved in DMSO and tested in 10-dose IC50 mode with 3-fold serial dilution starting at 30 μM. Control Compound Trichostatin A (TSA) was tested in a 10-dose IC50 with 3-fold serial dilution starting at 5 μM. IC50 values were extracted by curve-fitting the dose/response slopes. Assays were performed in duplicate and IC50 values are an average of data from both experiments.
Human HDAC6 (GenBank Accession No. BC069243): Full length with N-terminal GST tag, MW=159 kDa, expressed by baculovirus expression system in Sf9 cells. Enzyme is in 50 mM Tris-HCl, pH 8.0, 138 mM NaCl, 20 mM glutathione, and 10% glycerol, and stable for >6 months at −80° C. Purity is >90% by SDS-PAGE. Specific Activity is 50 U/μg, where one U=1 pmol/min under assay condition of 25 mM Tris/Cl, pH8.0, 137 mM NaCl, 2.7 mM KCl, 1 mM MgCl2, and 0.1 mg/ml BSA, 30 μM HDAC substrate, and 5 ng/μl HDAC6, incubation for 60 min at 30° C.
(§2) Substrate for HDAC1 and HDAC6: Acetylated peptide substrate for HDAC, based on residues 379-382 of p53 (Arg-His-Lys-Lys(Ac)), a site of regulatory acetylation by the p300 and CBP acetyltransferases (lysines 381, 382)1-6, is the best for HDAC from among a panel of substrates patterned on p53, histone H3 and histone H4 acetylation sites7.
(§3) Reaction Buffer: 50 mM Tris-HCl, pH 8.0, 137 mM NaCl, 2.7 mM KCl, 1 mM MgCl2, 1 mg/ml BSA.
HDAC6: 12.6 nM HDAC6 and 50 μM HDAC substrate are in the reaction buffer and 1% DMSO final. Incubate for 2 hours at 30° C.
(§4) All IC50 values are automatically calculated using the GraphPad Prism version 5 and Equation of Sigmoidal dose-response (variable slope): Y=Bottom+(Top−Bottom)/(1+10^((Log EC50−X)*HillSlope)), where X is the logarithm of concentration, Y is the response, Y starts at Bottom and goes to Top with a sigmoid shape. In most cases, “Bottom” is set 0, and “Top” is set “less than 120%”. This is identical to the “four parameter logistic equation”. IC50 curves also are drawn using the GraphPad Prism, and IC50 values and Hill slopes are provided.
(§5) HDAC Activity Assays: HDAC assay is performed using fluorescently-labeled acetylated substrate, which comprises an acetylated lysine side chain. After incubation with HDAC, deacetylation of the substrate sensitizes the substrate such that, in a second step, treatment with the detection enzyme produces a fluorophore. HDACs 1 and 6 were expressed as full length fusion proteins. Purified proteins were incubated with 50 μM fluorescently-labeled acetylated peptide substrate and test compound for 2 hours at RT in HDAC assay buffer containing 50 mM Tris-HCl (pH 8.0), 137 mM NaCl, 2.7 mM KCl, 1 mM MgCl2, 1% DMSO, and 1% BSA.
(§6) Reactions were terminated by the addition of the Developer after 2 hours, and the development of fluorescence signal, which was relative to the amount of deacetylated peptide, was monitored by time-course measurement of EnVision (PerkinElmer). The HDAC activity was estimated from the slope of time-course measurement of the fluorescence intensity. The slope of no-enzyme control (substrate alone) was served as background, and % Enzyme activity was calculated using background-subtracted slope of no inhibitor control (DMSO) as 100% activity.

Nrf2 = Nrf2 activation, Neh2-luc reporter assay; type: cell-based; details: measured at 10 μM
Protocol: (§7) The present compounds were evaluated for an ability to activate Nrf2 and HIF-1α. Table 1 summarizes Nrf2 activation data obtained in Neh2-luc reporter assay; and HIF1 activation measured in ODD reporter assay.

HIF-1α = test: HIF1 activation, ODD reporter assay; type: cell-based; details: measured at 10 μM
Protocol: as §7

Human HDAC1 = target: T2, Human HDAC1 (Homo sapiens, UniProt Q13547); test: HDAC1 inhibition assay (fluorogenic p53 peptide substrate); type: biochemical; details: Table 1; performed by Reaction Biology Corporation; read-out: HDAC isoform IC50 (nM) 1
T2 construct: Full length with C-terminal GST tag, MW=79.9 kDa; GST (C); host or cells: Sf9 insect cells (baculovirus)
T2 sequence (Q13547 whole entry, canonical isoform): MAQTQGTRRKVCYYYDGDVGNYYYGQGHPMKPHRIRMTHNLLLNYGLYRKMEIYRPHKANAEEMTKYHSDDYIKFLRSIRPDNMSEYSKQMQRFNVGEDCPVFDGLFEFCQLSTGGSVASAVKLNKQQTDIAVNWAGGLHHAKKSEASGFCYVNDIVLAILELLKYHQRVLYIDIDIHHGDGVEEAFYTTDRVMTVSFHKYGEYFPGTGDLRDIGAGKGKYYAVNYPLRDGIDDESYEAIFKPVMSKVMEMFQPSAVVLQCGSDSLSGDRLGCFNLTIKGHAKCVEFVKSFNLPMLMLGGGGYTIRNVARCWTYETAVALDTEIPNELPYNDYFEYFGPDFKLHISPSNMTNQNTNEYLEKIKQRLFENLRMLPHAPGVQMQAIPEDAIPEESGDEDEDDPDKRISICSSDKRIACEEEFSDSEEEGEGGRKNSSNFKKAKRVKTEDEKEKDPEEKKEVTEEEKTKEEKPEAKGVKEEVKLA
Protocol: as §1
Human HDAC1 (GenBank Accession No. NM_004964): Full length with C-terminal GST tag, MW=79.9 kDa, expressed by baculovirus expression system in Sf9 cells. Enzyme is in 50 mM Tris-HCl, pH 8.0, 138 mM NaCl, 20 mM glutathione, and 10% glycerol, and stable for >6 months at −80° C. Purity is >10% by SDS-PAGE. Specific Activity is 20 U/μg, where one U=1 pmol/min under assay condition of 25 mM Tris/Cl, pH8.0, 137 mM NaCl, 2.7 mM KCl, 1 mM MgCl2, 0.1 mg/ml BSA, 100 μM HDAC substrate, and 13.2 ng/μl HDAC1, incubation for 30 min at 30° C.
as §2, §3
HDAC1: 75 nM HDAC1 and 50 μM HDAC substrate are in the reaction buffer and 1% DMSO final. Incubate for 2 hours at 30° C.
as §4, §5, §6

Compound | IC50 (Human HDAC6) | IC50 (Human HDAC1) | fold induction at 10 µM (Nrf2) | fold induction at 10 µM (HIF-1α) | Nrf2 fold activation (Nrf2) | HIF-1α fold activation (HIF-1α)
O=C(NO)c1ccc(CN2CCc3cc(Cl)ccc32)cc1F [II-ING-51, 4-((5-Chloroindolin-1-yl)methyl)-2-fluoro-N-hydroxybenzamide] | 40.2 nM | – | 1.6 | 7.2 | – | –
C[N+]1(C)CCC2(CC1)C(=O)N(Cc1ccc(C(=O)NO)cc1)c1ccccc12 [II-ING-118] | 5.8 nM | 7880 nM | 2 | 1.3 | – | –
O=C(NO)c1ccc(CNc2nc3ccccc3n2-c2ccccc2)cc1 [II-ING-87, N-hydroxy-4-(((1-phenyl-1H-benzo[d]imidazol-2-yl)amino)methyl)benzamide] | 13 nM | 3230 nM | 1.2 | 1 | – | –
O=C(NO)c1cccc(CN2C(=O)C(F)(F)c3ccccc32)c1 [II-ING-100, 3-((3,3-Difluoro-2-oxoindolin-1-yl)methyl)-N-hydroxybenzamide] | 5560 nM | ≥ 30000 nM | 1.5 | 1 | – | –
C[N+]1(C)CCC2(CC1)C(=O)N(Cc1ccc(C(=O)NO)cc1)c1ccccc12 [II-ING-109, 1-(4-(Hydroxycarbamoyl)benzyl)-1′,1′-dimethyl-2-oxospiro[indoline-3,4′-piperidin]-1′-ium] | 18 nM | 19700 nM | – | – | 1.5 fold | 1.0 fold
Cn1c(NCc2ccc(C(=O)NO)cc2)nc2cc(Cl)ccc21 [II-ING-85, 4-(((5-chloro-1-methyl-1H-benzo[d]imidazol-2-yl)amino)methyl)-N-hydroxybenzamide] | 2.7 nM | 1500 nM | 1.3 | 1.1 | – | –
CC1(C)C(=O)N(Cc2ccc(C(=O)NO)cc2)c2ccccc21 [II-ING-101, 4-((3,3-Dimethyl-2-oxoindolin-1-yl)methyl)-N-hydroxybenzamide] | 5.1 nM | 7880 nM | 3.4 | 1 | – | –

The next lines start with results.

IC50 (Human HDAC6) | IC50 (Human HDAC1) | Compound | fold induction at 10 µM (Nrf2) | fold induction at 10 µM (HIF-1α) | Nrf2 fold activation (Nrf2) | HIF-1α fold activation (HIF-1α)
25.2 nM | 1850 nM | O=C(NO)c1ccc(CN2CCc3ccc(OCc4ccccc4)cc32)cc1 [II-ING-61, 4-((6-(Benzyloxy)indolin-1-yl)methyl)-N-hydroxybenzamide] | 2.2 | 7 | – | –
8.2 nM | 4700 nM | O=C(NO)c1ccc(CN2CC3(CC3)c3cc(F)ccc32)cc1 [II-ING-68, 4-((5′-Fluorospiro[cyclopropane-1,3′-indolin]-1′-yl)methyl)-N-hydroxybenzamide] | 6.2 | 5.8 | – | –
24.5 nM | 18700 nM | CC1(C)CN(Cc2ccc(C(=O)NO)cc2)c2ccccc21 [II-ING-65, 4-((3,3-Dimethylindolin-1-yl)methyl)-N-hydroxybenzamide] | 1.8 | 2.8 | – | –
1.4 nM | 1970 nM | O=C(NO)c1ccc(CN2CCc3cc([N+](=O)[O-])ccc32)cc1 [II-ING-57, N-Hydroxy-4-((5-nitroindolin-1-yl)methyl)benzamide] | 6.6 | 3.9 | – | –
4.6 nM | 7820 nM | O=C(NO)c1ccc(CN2CCc3cc(F)c(Cl)cc32)cc1 [II-ING-56, 4-((6-Chloro-5-fluoroindolin-1-yl)methyl)-N-hydroxybenzamide] | 5.5 | 7.8 | – | –
